Data on 28 compounds can be found in patent US20230104936A1, “TRPML MODULATORS” (Casma Therapeutics, Inc., priority 2019, published 2023).

The structures appear in SMILES notation. Some results are limits rather than exact numbers.

The subject of the first test is TFEB. Kind of test: TFEB nuclear translocation assay, HeLa wt cells. The format is cell-based. Conditions: 2 hrs compound treatment, Table 1 does not say HeLa wt or TRPML1 KO. In a few lines:
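HeLa wt cells were treated with compound for 2 hrs at 37° C, then fixed in 4% PFA and immunostained for TFEB with an Alexa 488 secondary and Hoechst nuclear counterstain. Automated epifluorescence imaging at ×20 gave the ratio of nuclear TFEB intensity to a perinuclear ring region, from which AC50 was derived.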
For the compound `CC(c1cccc(F)c1N1CCC(CN2CCC(F)(F)CC2)CC1)S(=O)(=O)c1ccc(S(=O)(=O)N(C)C)cc1` (stereo not shown) [Compound A-803, 4-((1-(2-(4-((4,4-difluoropiperidin-1-yl)methyl)piperidin-1-yl)-3-fluorophenyl)ethyl)sulfonyl)-N,N-dimethylbenzenesulfonamide], the AC50 is at most 2 µM. The same measure, in the same setting: then `CC(c1cccc(F)c1N1CCC(CN2CCC(F)(F)CC2)CC1)S(=O)(=O)c1ccc(S(=O)(=O)N(C)C)cc1` (stereo not shown) [Compound A-804, 4-((1-(2-(4-((4,4-difluoropiperidin-1-yl)methyl)piperidin-1-yl)-3-fluorophenyl)ethyl)sulfonyl)-N,N-dimethylbenzenesulfonamide], with at most 2 µM; and `CC(c1cccc(F)c1N1CCC(CN2CCC(F)(F)C2)CC1)S(=O)(=O)c1ccc(S(=O)(=O)N(C)C)cc1` (stereo not shown) [Compound A-805, 4-((1-(2-(4-((3,3-difluoropyrrolidin-1-yl)methyl)piperidin-1-yl)-3-fluorophenyl)ethyl)sulfonyl)-N,N-dimethylbenzenesulfonamide], with at most 2 µM. The compound `CC(c1cccc(F)c1N1CCC(CN2CCC(F)(F)C2)CC1)S(=O)(=O)c1ccc(S(=O)(=O)N(C)C)cc1` (stereo not shown) [Compound A-806, 4-((1-(2-(4-((3,3-difluoropyrrolidin-1-yl)methyl)piperidin-1-yl)-3-fluorophenyl)ethyl)sulfonyl)-N,N-dimethylbenzenesulfonamide] had an AC50 of at most 2 µM.

Staying with this test, now noted: Homo sapiens, HeLa, 2 h, 2 hrs compound treatment, Table 1 does not say HeLa wt or TRPML1 KO.
`C[C@@H]1CN(CC2(C)CCN(c3c(F)cccc3NS(=O)(=O)c3ccc(S(=O)(=O)N(C)C)cc3)CC2)C[C@H](C)O1` [Compound A-781, N4-[2-(4-{[(2R,6S)-2,6-dimethylmorpholin-4-yl]methyl}-4-methylpiperidin-1-yl)-3-fluorophenyl]-N1,N1-dimethylbenzene-1,4-disulfonamide] registered an AC50 of at most 2 µM.

`C[C@@H]1CN(CC2CCN(c3c(F)cccc3[C@@H](C)S(=O)(=O)c3ccc(S(=O)(=O)N(C)C)cc3)CC2)C[C@H](C)O1` [Compound A-782, 4-[(1R)-1-[2-(4-{[(2R,6S)-2,6-dimethylmorpholin-4-yl]methyl}piperidin-1-yl)-3-fluorophenyl]ethanesulfonyl]-N,N-dimethylbenzene-1-sulfonamide] had an AC50 of at most 2 µM. In turn, `C[C@@H]1CN(CC2CCN(c3c(F)cccc3[C@H](C)S(=O)(=O)c3ccc(S(=O)(=O)N(C)C)cc3)CC2)C[C@H](C)O1` [Compound A-783, 4-[(1S)-1-[2-(4-{[(2R,6S)-2,6-dimethylmorpholin-4-yl]methyl}piperidin-1-yl)-3-fluorophenyl]ethanesulfonyl]-N,N-dimethylbenzene-1-sulfonamide] registered an AC50 of at most 2 µM. With `CN(C)S(=O)(=O)c1ccc(S(=O)(=O)Nc2ccccc2N2CCC(C)(COC(F)(F)F)CC2)cc1` [Compound A-784, N1,N1-dimethyl-N4-(2-{4-methyl-4-[(trifluoromethoxy)methyl]piperidin-1-yl}phenyl)benzene-1,4-disulfonamide], the AC50 was at most 2 µM. Same read-out and setting: then `CN(C)S(=O)(=O)c1ccc(S(=O)(=O)Nc2cccc(F)c2N2CCC(CN3C[C@@H]4C[C@H]3CO4)CC2)cc1` [Compound A-785, N4-[3-fluoro-2-(4-{[(1S,4S)-2-oxa-5-azabicyclo[2.2.1]heptan-5-yl]methyl}piperidin-1-yl)phenyl]-N1,N1-dimethylbenzene-1,4-disulfonamide], with at most 2 µM; and `COC1(CN2C[C@@H](C)O[C@@H](C)C2)CCN(c2c(F)cccc2NS(=O)(=O)c2ccc(S(=O)(=O)N(C)C)cc2)CC1` [Compound A-786, N4-[2-(4-[(2R,6S)-2,6-dimethylmorpholin-4-yl]methyl-4-methoxypiperidin-1-yl)-3-fluorophenyl]-N1,N1-dimethylbenzene-1,4-disulfonamide], with at most 2 µM. In turn, `C[C@@H]1CN(CC2CCN(c3c(NS(=O)(=O)c4ccc(S(=O)(=O)N(C)C)cc4)cccc3C(F)(F)F)CC2)C[C@H](C)O1` [Compound A-788, N4-[2-(4-{[(2R,6S)-2,6-dimethylmorpholin-4-yl]methyl}piperidin-1-yl)-3-(trifluoromethyl)phenyl]-N1,N1-dimethylbenzene-1,4-disulfonamide] returned an AC50 of at most 2 µM. On the same count and under the same terms, for `CN(C)S(=O)(=O)c1ccc(S(=O)(=O)Nc2cccc(F)c2N2CCC(CN3CCC(F)(F)CC3)CC2)cc1` [Compound A-789, N4-(2-{4-[(4,4-difluoropiperidin-1-yl)methyl]piperidin-1-yl}-3-fluorophenyl)-N1,N1-dimethylbenzene-1,4-disulfonamide] the value was at most 2 µM; for `CN(C)S(=O)(=O)c1ccc(S(=O)(=O)Nc2cccc(F)c2N2CCC(CN3C4CCC3COC4)CC2)cc1` [Compound A-790, N4-{3-fluoro-2-[4-({3-oxa-8-azabicyclo[3.2.1]octan-8-yl}methyl)piperidin-1-yl]phenyl}-N1,N1-dimethylbenzene-1,4-disulfonamide], at most 2 µM. Turning to `CN(C)S(=O)(=O)c1ccc(S(=O)(=O)Nc2cccc(F)c2N2CCC(CN3CC4CC(C3)O4)CC2)cc1` [Compound A-791, N4-{3-fluoro-2-[4-({6-oxa-3-azabicyclo[3.1.1]heptan-3-yl}methyl)piperidin-1-yl]phenyl}-N1,N1-dimethylbenzene-1,4-disulfonamide], the AC50 was at least 10 µM.

In turn, `CN(C)S(=O)(=O)c1ccc(S(=O)(=O)Nc2cccc(F)c2N2CCC3(CCNC3=O)CC2)cc1` [Compound A-792, N4-(3-fluoro-2-{1-oxo-2,8-diazaspiro[4.5]decan-8-yl}phenyl)-N1,N1-dimethylbenzene-1,4-disulfonamide] had an AC50 of at least 10 µM.

Regarding `CN(C)S(=O)(=O)c1ccc(S(=O)(=O)Nc2ccc3ccnn3c2N2CCCCC2)cc1` [Compound A-793, N1,N1-dimethyl-N4-[7-(piperidin-1-yl)pyrazolo[1,5-a]pyridin-6-yl]benzene-1,4-disulfonamide], the AC50 is 2.01 to 8 µM. Still for that read-out and setting: then `C[C@@H]1CN(CC2(F)CCN(c3c(F)cccc3NS(=O)(=O)c3ccc(S(=O)(=O)N(C)C)cc3)CC2)C[C@H](C)O1` [Compound A-794, N4-[2-(4-{[(2R,6S)-2,6-dimethylmorpholin-4-yl]methyl}-4-fluoropiperidin-1-yl)-3-fluorophenyl]-N1,N1-dimethylbenzene-1,4-disulfonamide], with at most 2 µM; and `CC(=O)NC1(C)CCN(c2c(F)cccc2NS(=O)(=O)c2ccc(S(=O)(=O)N(C)C)cc2)CC1` [Compound A-795, N-(1-{2-[4-(dimethylsulfamoyl)benzenesulfonamido]-6-fluorophenyl}-4-methylpiperidin-4-yl)acetamide], with 8.01 to 9.99 µM. Same read-out and setting: then `CN(C)S(=O)(=O)c1ccc(S(=O)(=O)Nc2cccc(F)c2N2CCC3(CCC(=O)N3)CC2)cc1` [Compound A-796, N4-(3-fluoro-2-{2-oxo-1,8-diazaspiro[4.5]decan-8-yl}phenyl)-N1,N1-dimethylbenzene-1,4-disulfonamide], with at least 10 µM; and `CN(C)S(=O)(=O)c1ccc(S(=O)(=O)Nc2ccccc2N2CCC(COC(F)(F)CF)CC2)cc1` [Compound A-797, N1,N1-dimethyl-N4-(2-{4-[(1,1,2-trifluoroethoxy)methyl]piperidin-1-yl}phenyl)benzene-1,4-disulfonamide], with at most 2 µM; and `CN(C)S(=O)(=O)c1ccc(S(=O)(=O)Nc2ccccc2N2CCC(F)(COC(F)(F)F)CC2)cc1` [Compound A-798, N4-(2-{4-fluoro-4-[(trifluoromethoxy)methyl]piperidin-1-yl}phenyl)-N1,N1-dimethylbenzene-1,4-disulfonamide], with at most 2 µM. Still for that read-out and setting: then `CC(c1cccc(F)c1N1CCC(CN2C[C@@H](C)O[C@@H](C)C2)CC1)S(=O)(=O)c1ccc(S(=O)(=O)C(F)F)cc1` (stereo partly drawn) [Compound A-800, (2R,6S)-4-[(1-{2-[1-(4-difluoromethanesulfonylbenzenesulfonyl)ethyl]-6-fluorophenyl}piperidin-4-yl)methyl]-2,6-dimethylmorpholine], with at most 2 µM; and `CC(c1cccc(F)c1N1CCC(CN2CCC(F)(F)CC2)CC1)S(=O)(=O)c1ccc(S(=O)(=O)N(C)C)cc1` (stereo not shown) [Compound A-801, 4-((1-(2-(4-((4,4-difluoropiperidin-1-yl)methyl)piperidin-1-yl)-3-fluorophenyl)ethyl)sulfonyl)-N,N-dimethylbenzenesulfonamide], with at most 2 µM; and `CC(c1cccc(F)c1N1CCC(CN2CCC(F)(F)C2)CC1)S(=O)(=O)c1ccc(S(=O)(=O)N(C)C)cc1` (stereo not shown) [Compound A-802, 4-[1-(2-{4-[(3,3-difluoropyrrolidin-1-yl)methyl]piperidin-1-yl}-3-fluorophenyl)ethanesulfonyl]-N,N-dimethylbenzene-1-sulfonamide], with at most 2 µM. The compound `CNC(=O)c1cccc(NS(=O)(=O)c2ccc(S(=O)(=O)N(C)C)cc2)c1N1CCCCC1` [Compound A-809, 3-[4-(dimethylsulfamoyl)benzenesulfonamido]-N-methyl-2-(piperidin-1-yl)benzamide] had an AC50 of at least 10 µM. Compound `C#Cc1ccc(NS(=O)(=O)c2ccc(S(=O)(=O)N(C)C)cc2)c(N2CCCCC2)c1` [Compound A-812, N4-[4-ethynyl-2-(piperidin-1-yl)phenyl]-N1,N1-dimethylbenzene-1,4-disulfonamide] returned an AC50 of at most 2 µM. In turn, `COCC1(C)CCN(c2c(NS(=O)(=O)c3ccc(S(=O)(=O)N(C)C)cc3)ccc3nccn23)CC1` [Compound A-813, N4-{5-[4-(methoxymethyl)-4-methylpiperidin-1-yl]imidazo[1,2-a]pyridin-6-yl}-N1,N1-dimethylbenzene-1,4-disulfonamide] showed an AC50 of at least 10 µM.

The compound `C[C@@H]1CN(CC2CCN(c3c(F)cccc3NS(=O)(=O)c3ccc(C(F)(F)C4CC4)cc3)CC2)C[C@H](C)O1` [Compound A-814, 4-(cyclopropyldifluoromethyl)-N-[2-(4-{[(2R,6S)-2,6-dimethylmorpholin-4-yl]methyl}piperidin-1-yl)-3-fluorophenyl]benzene-1-sulfonamide] yielded an AC50 of at most 2 µM.

As a reminder, the AC50 is the concentration at which the activity in the assay is half-maximal.
